The results in this text go back to patent US10961199B2 (3B Pharmaceuticals GmbH, priority 2012, dated 2021).

One assay concerns the target T1, B2 (h) (Homo sapiens, UniProt P30411).
T1 construct: Cerep P1
T1 sequence (P30411 1-391): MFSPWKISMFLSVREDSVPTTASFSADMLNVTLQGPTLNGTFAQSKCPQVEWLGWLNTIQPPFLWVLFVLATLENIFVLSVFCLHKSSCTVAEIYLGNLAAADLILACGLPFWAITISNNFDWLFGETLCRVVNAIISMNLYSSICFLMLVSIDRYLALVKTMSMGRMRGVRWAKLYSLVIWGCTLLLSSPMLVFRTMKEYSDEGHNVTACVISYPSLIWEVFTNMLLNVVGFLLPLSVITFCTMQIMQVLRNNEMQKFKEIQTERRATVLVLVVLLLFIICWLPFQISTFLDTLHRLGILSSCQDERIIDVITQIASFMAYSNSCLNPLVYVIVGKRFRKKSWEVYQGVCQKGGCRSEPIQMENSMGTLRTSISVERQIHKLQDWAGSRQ
Nature of the assay: ExpresSProfile B2 (h) agonist radioligand. Format: binding.

Assay [1] concerns the target T2, NTR1 (Homo sapiens, UniProt P30989). Nature of the assay: NTR1 radioligand binding assay (RLB, Cerep). Also noted: host or cells: CHO cells (receptor preparation). To be noted: CHO cells recombinantly expressing the human receptor; 0.05 nM 125I-(Tyr3-neurotensin); 60 min at 4° C. The protocol:
Radioligand Binding Assay
In order to determine the binding affinity of compounds comprising a radiolabel for NTR1, a radioligand binding assay was carried out. A radioligand is a radioactive biochemical substance that is used for diagnosis or for research-oriented study of cellular receptor systems of the body. In […] systems it is often used to quantify the binding of a test molecule to the binding site of radioligand. The higher the affinity of the molecule, the more radioligand is displaced from the binding site. The amount of bound radioligand can be measured by scintillation counting and thereby quantified. This assay is commonly used to calculate binding constants of molecules to receptors.
The NTR1 radioligand binding assay was performed by Cerep (Celle l'Evescault, France; Catalog reference 0109) according to Vita et al., FEBS Lett., 1993, 317, 139-142. NTR1 was prepared from CHO cells recombinantly expressing the human receptor and incubated with 0.05 nM ^125I-(Tyr^3-neurotensin) and serial dilutions of the test compounds. […] The result for each test compound is expressed as IC50 concentration and provides a measure for the affinity of the test compound for NTR1.

The target in the next assay is KV channel. Description: ExpresSProfile KV channel antagonist radioligand. It is filed as binding. The conditions noted are these: Reference Compound; read-out: Ki Ref.
Another assay addresses T3, delta 2 (DOP) (h) (Homo sapiens, UniProt P41143).
T3 construct: Cerep (contract assay) P1
Nature of the assay: ExpresSProfile delta 2 (DOP) (h) agonist radioligand. It is filed as binding. The conditions noted are these: Reference Compound.

The target of the next assay is T4, CCK1 (CCKA) (h) (Homo sapiens, UniProt P32238).
T4 construct: Cerep P1
T4 sequence (P32238 1-428): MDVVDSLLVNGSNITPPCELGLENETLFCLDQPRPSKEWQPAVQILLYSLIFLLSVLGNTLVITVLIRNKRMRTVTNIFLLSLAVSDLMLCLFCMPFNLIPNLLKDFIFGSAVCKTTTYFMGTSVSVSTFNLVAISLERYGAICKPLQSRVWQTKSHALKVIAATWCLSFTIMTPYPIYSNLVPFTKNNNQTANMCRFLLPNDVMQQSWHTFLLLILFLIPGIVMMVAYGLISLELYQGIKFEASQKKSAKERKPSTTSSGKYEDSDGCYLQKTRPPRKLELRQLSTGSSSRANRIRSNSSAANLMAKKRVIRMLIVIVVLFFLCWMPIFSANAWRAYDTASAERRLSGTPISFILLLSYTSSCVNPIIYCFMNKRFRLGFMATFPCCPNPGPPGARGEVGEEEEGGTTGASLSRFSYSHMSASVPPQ
Description: ExpresSProfile CCK1 (CCKA) (h) agonist radioligand. To be noted: Reference Compound. Format: binding.

Another assay addresses T5, CCR1 (h) (Homo sapiens, UniProt P32246).
T5 construct: Cerep P1
T5 sequence (P32246 1-355): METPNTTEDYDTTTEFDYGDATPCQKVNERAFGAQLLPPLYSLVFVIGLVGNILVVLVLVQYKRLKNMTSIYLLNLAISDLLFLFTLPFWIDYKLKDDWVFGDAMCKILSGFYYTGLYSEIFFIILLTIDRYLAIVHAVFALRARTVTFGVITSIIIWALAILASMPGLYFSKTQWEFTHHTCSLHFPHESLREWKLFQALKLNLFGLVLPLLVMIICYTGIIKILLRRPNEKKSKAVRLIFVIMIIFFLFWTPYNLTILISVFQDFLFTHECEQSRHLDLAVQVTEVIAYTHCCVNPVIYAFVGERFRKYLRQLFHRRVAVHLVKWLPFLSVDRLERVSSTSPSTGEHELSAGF
Nature of the assay: ExpresSProfile CCR1 (h) agonist radioligand. It is filed as binding. The conditions noted are these: Reference Compound; read-out: Ki Ref.

The target in the next assay is T6, CXCR2 (IL-8B) (h) (Homo sapiens, UniProt P25025).
T6 construct: Cerep P1
T6 sequence (P25025 1-360): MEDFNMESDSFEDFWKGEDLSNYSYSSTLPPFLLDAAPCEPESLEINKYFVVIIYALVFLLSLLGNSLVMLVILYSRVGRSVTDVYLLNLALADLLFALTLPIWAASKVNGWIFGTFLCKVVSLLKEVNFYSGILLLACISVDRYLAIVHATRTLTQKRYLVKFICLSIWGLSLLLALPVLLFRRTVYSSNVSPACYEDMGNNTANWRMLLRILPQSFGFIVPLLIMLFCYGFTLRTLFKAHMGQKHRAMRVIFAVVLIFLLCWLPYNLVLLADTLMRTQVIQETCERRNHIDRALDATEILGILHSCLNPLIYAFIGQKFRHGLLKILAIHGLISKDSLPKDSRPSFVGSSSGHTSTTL
Nature of the assay: ExpresSProfile CXCR2 (IL-8B) (h) agonist radioligand. Format: binding. The conditions noted are these: Reference Compound.

Assay [2] deals with T2, NTR1. Nature of the assay: Functional Ca2+ mobilisation assay (antagonist assay). It is filed as cell-based. The arrangement: HA-tagged puromycin N-acetyltransferase-ubiquitin fusion (pExoIN2 system; HEK293 lines only) (N); host or cells: HT29 (endogenous receptor) or HEK293 stably transfected with NTR1. To be noted: HT29 or NTR1-expressing HEK293 cells, EC80-concentration of agonist. From the text: Functional Ca^2+ Mobilisation Assay
Ca^2+ ions are usually kept at nanomolar levels in the cytosol of cells, and act in a number of signal transduction pathways as second messengers. […] Changes in calcium ion concentration in standard assay protocols can be readily detected with fluorescent dyes that emit light when changes in intracellular Ca^2+ ion concentration occur. Given the transient nature of these responses, they are often read with instrumentation that has ‘inject and read’ capability.
HT29 or NTR1-expressing HEK293 cells were trypsinized and seeded into black flat clear-bottom 96-well plates (Corning, Amsterdam, The Netherlands) at 6×10^5 cells per well. […] For agonist assays, serial dilutions of agonistic substances were added to the cells loaded with dye and the change of the fluorescent signal was recorded continually for approx. 90 s using a FlexStation II (Molecular Devices, Biberach, Germany). […] For antagonist assays, cells loaded with 100 μl of Ca5-dye were pre-incubated with serial dilutions of antagonistic substances for 30 min, before the EC80-concentration of agonist was added to the cells and the change of the fluorescent signal was recorded continually for approx. 90 s. […]
(In general: Calcium assays in cells follow changes in intracellular calcium, usually with a dye or a luminescent sensor.)

T2 sequence (P30989 whole entry): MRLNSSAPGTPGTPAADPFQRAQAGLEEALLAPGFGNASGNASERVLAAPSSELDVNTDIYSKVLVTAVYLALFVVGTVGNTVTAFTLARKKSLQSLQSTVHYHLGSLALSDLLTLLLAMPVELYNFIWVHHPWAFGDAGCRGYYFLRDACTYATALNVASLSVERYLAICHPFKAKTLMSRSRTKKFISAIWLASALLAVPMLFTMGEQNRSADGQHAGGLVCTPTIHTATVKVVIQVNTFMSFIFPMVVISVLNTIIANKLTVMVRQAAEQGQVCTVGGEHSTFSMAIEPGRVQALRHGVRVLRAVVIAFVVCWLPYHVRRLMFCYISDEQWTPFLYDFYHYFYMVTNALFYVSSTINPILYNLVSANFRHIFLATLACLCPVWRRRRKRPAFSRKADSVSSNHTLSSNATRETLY
T3 sequence (P41143 whole entry): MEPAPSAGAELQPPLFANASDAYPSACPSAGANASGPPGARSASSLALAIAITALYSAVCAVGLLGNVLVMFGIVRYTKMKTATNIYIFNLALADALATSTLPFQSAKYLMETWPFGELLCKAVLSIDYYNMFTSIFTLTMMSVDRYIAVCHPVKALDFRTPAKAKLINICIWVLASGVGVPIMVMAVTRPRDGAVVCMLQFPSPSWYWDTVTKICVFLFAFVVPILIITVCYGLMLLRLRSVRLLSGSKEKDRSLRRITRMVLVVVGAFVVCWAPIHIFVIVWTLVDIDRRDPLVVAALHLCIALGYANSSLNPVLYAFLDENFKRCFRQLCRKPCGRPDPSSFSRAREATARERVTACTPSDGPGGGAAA

NPC 567: the “nH Ref” value on B2 (h) was found to be 0.9.

Take `COc1cccc(OC)c1-c1cc(C(=O)NC2(C(=O)O)C3CC4CC(C3)CC2C4)nn1-c1ccc(C(=O)N(C)CCCN(C)CCCN(C)C(=O)c2ccc(F)cc2)cc1C(C)C` (stereo not drawn) [(IIIg), 2-{[5-(2,6-Dimethoxy-phenyl)-1-(4-{[3-({3-[(4-fluoro-benzoyl)-methyl-amino]-propyl}-methyl-amino)-propyl]-methyl-carbamoyl}-2-isopropyl-phenyl)-1H-pyrazole-3-carbonyl]-amino}-adamantane-2-carboxylic acid]: the IC50 (as a rule, the concentration that gives 50% inhibition) on NTR1 [1] is 2 nM.

Turning to alpha-dendrotoxin, the Ki (commonly the dissociation constant of the complex between target and ligand, obtained from inhibition or displacement) on KV channel came to 0.2 nM.

On to DPDPE, for which the “nH Ref” value at delta 2 (DOP) (h) is recorded as 0.9.

CCK-8s: the “nH Ref” value at CCK1 (CCKA) (h) was 0.6.

Turning to “MIP-1alpha: reference compound, CCR1 (h) assay”, in the assay with CCR1 (h), the Ki was found to be 0.041 nM.

Turning to “IL-8: reference compound, CXCR2 (IL-8B) (h) assay”, the “nH Ref” value in the assay with CXCR2 (IL-8B) (h) is reported as 1.4. In the assay with CXCR2 (IL-8B) (h) (read-out: Ki Ref), the Ki was found to be 0.056 nM.

Take `CNCCCN(C)CCCN(C)C(=O)c1ccc(-n2nc(C(=O)NC3(C(=O)O)C4CC5CC(C4)CC3C5)cc2-c2c(OC)cccc2OC)c(C(C)C)c1` (stereo not drawn) [(III), 2-({5-(2,6-Dimethoxy-phenyl)-1-[2-isopropyl-4-(methyl-{3-[methyl-(3-methylamino-propyl)-amino]-propyl}-carbamoyl)-phenyl]-1H-pyrazole-3-carbonyl}-amino)-adamantane-2-carboxylic acid]: the “IC50 [nM] RLB” value on NTR1 [1] is “single digit nanomolar”. Moreover, the “IC50 [nM] Ca” value on NTR1 [2] was “single digit nanomolar”.

Regarding `COc1cccc(OC)c1-c1cc(C(=O)NC2(C(=O)O)C3CC4CC(C3)CC2C4)nn1-c1ccc(C(=O)N(CCCN)CCCN(C)C)cc1C(C)C` (stereo not drawn) [(V), 2-{[1-{4-[(3-Amino-propyl)-(3-dimethylamino-propyl)-carbamoyl]-2-isopropyl-phenyl}-5-(2,6-dimethoxy-phenyl)-1H-pyrazole-3-carbonyl]-amino}-adamantane-2-carboxylic acid], at NTR1 [1], the “IC50 [nM] RLB” value is listed as “single digit nanomolar”. For the same compound, the “IC50 [nM] Ca” value at NTR1 [2] is listed as “single digit nanomolar”.
